Experimental data reported in patent publication US20240398793A1, “Methods of Treating Lymphedema” (Celltaxis, LLC, priority 2021, published 2024).

Tests used:
[1] = Most common treatment emergent adverse events, safety population
[2] = Clinical safety and tolerability
P-glycoprotein (P-gp) = P-glycoprotein (P-gp) (Homo sapiens (Human), UniProt P08183); assay: In vitro drug interaction study, P-gp; type: in vitro ADME
neutrophil swarming = assay: Neutrophil swarming in vitro in response to CF sputum factors; type: cell-based; settings: 48 ng/mL; factors present in human CF sputum

Sequence of P-glycoprotein (P-gp) (P08183 whole entry): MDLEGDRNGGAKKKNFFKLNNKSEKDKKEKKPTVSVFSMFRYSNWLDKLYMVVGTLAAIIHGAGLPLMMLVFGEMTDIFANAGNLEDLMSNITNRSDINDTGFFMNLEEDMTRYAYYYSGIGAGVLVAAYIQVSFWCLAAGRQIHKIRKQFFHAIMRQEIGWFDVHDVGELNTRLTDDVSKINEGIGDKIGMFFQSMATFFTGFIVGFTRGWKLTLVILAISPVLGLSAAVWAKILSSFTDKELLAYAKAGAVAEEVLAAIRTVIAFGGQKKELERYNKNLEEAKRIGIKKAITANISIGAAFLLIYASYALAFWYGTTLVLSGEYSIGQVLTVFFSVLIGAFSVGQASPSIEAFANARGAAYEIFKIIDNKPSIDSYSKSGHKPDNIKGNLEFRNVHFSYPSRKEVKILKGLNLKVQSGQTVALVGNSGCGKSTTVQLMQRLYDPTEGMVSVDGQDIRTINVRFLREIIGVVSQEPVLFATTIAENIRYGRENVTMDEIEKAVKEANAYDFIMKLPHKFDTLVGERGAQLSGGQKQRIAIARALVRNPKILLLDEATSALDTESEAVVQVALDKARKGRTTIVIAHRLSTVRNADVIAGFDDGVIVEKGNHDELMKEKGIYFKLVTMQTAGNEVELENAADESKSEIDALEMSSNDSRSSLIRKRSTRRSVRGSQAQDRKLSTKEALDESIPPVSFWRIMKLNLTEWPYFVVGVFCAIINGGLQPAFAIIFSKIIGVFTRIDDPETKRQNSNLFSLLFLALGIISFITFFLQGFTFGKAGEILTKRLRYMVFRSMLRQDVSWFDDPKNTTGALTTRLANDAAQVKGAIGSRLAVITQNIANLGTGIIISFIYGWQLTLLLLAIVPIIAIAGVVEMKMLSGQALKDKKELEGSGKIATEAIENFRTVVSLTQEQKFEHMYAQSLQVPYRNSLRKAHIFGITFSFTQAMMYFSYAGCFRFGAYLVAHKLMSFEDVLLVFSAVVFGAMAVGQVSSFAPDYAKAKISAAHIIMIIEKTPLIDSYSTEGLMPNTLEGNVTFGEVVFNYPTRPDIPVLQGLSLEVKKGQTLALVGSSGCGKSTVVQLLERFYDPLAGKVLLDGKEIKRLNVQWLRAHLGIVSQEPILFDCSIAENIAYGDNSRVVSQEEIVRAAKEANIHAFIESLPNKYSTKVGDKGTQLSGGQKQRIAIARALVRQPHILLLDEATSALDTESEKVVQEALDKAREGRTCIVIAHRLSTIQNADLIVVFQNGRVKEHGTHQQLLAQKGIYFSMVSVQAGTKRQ

**Q.** For `O=C(O)c1ccc(CN2C[C@@H]3C[C@H]2CN3Cc2ccc(Oc3ccc(-c4ncco4)cc3)cc2)cc1` [Acebilustat, 4-{[(1S,4S)-5-({4-[4-oxazol-2-yl-phenoxy]phenyl}methyl)-2,5-diazabicyclo[2.2.1]heptan-2-yl]methyl}benzoic acid], which “Abdominal pain TEAE, %” value ([1]; 50 mg (N = 67)) is on record?
**A.** Its value is “(4.5%)”.

**Q.** And the “Abdominal pain upper TEAE, %” value ([1]; 50 mg (N = 67))?
**A.** The value was “(10.4%)”.

**Q.** What about the “Arthralgia TEAE, %” value ([1]; 50 mg (N = 67)) of the same molecule?
**A.** Its value is “(4.5%)”.

**Q.** And the “Back pain TEAE, %” value ([1]; 50 mg (N = 67))?
**A.** The value was “(6.0%)”.

**Q.** What about the “Chest discomfort TEAE, %” value ([1]; 50 mg (N = 67)) of the same molecule?
**A.** The value was “(4.5%)”.

**Q.** What about the “Constipation TEAE, %” value ([1]; 50 mg (N = 67)) of the same molecule?
**A.** The value was “(6.0%)”.

**Q.** And the “Cough TEAE, %” value ([1]; 50 mg (N = 67))?
**A.** Its value is “(40.3%)”.

**Q.** And the “Diarrhoea TEAE, %” value ([1]; 50 mg (N = 67))?
**A.** Its value is “(13.4%)”.

**Q.** What about the “Distal intestinal obstruction syndrome TEAE, %” value ([1]; 50 mg (N = 67)) of the same molecule?
**A.** Its value is “(6.0%)”.

**Q.** And the “Dyspnoea TEAE, %” value ([1]; 50 mg (N = 67))?
**A.** Its value is “(9.0%)”.

**Q.** And the “Epistaxis TEAE, %” value ([1]; 50 mg (N = 67))?
**A.** Its value is “(6.0%)”.

**Q.** What about the “Fatigue TEAE, %” value ([1]; 50 mg (N = 67)) of the same molecule?
**A.** The value was “(13.4%)”.

**Q.** And the “Forced expiratory volume decreased TEAE, %” value ([1]; 50 mg (N = 67))?
**A.** Its value is “(6.0%)”.

**Q.** What about the “Gastroenteritis TEAE, %” value ([1]; 50 mg (N = 67)) of the same molecule?
**A.** The value was “(1.5%)”.

**Q.** And the “Gastrointestinal disorders TEAE, %” value ([1]; 50 mg (N = 67))?
**A.** The value was “(40.3%)”.

**Q.** And the “General disorders and administration site conditions TEAE, %” value ([1]; 50 mg (N = 67))?
**A.** The value was “(35.8%)”.

**Q.** What about the “Haemoptysis TEAE, %” value ([1]; 50 mg (N = 67)) of the same molecule?
**A.** The value was “(25.4%)”.

**Q.** And the “Headache TEAE, %” value ([1]; 50 mg (N = 67))?
**A.** The value was “(23.9%)”.

**Q.** What about the “Infections and infestations TEAE, %” value ([1]; 50 mg (N = 67)) of the same molecule?
**A.** The value was “(88.1%)”.

**Q.** And the “Influenza TEAE, %” value ([1]; 50 mg (N = 67))?
**A.** The value was “(4.5%)”.

**Q.** And the “Investigations TEAE, %” value ([1]; 50 mg (N = 67))?
**A.** The value was “(29.9%)”.

**Q.** What about the “Musculoskeletal and connective tissue disorders TEAE, %” value ([1]; 50 mg (N = 67)) of the same molecule?
**A.** Its value is “(19.4%)”.

**Q.** What about the “Nasopharyngitis TEAE, %” value ([1]; 50 mg (N = 67)) of the same molecule?
**A.** The value was “(16.4%)”.

**Q.** What about the “Nausea TEAE, %” value ([1]; 50 mg (N = 67)) of the same molecule?
**A.** The value was “(7.5%)”.

**Q.** And the “Nervous system disorders TEAE, %” value ([1]; 50 mg (N = 67))?
**A.** The value was “(32.8%)”.

**Q.** And the “No. of subjects with at least one TEAE, %” value ([1]; 50 mg (N = 67))?
**A.** Its value is “(100.0%)”.

**Q.** And the “Oropharyngeal pain TEAE, %” value ([1]; 50 mg (N = 67))?
**A.** Its value is “(10.4%)”.

**Q.** And the “Paranasal sinus hypersecretion TEAE, %” value ([1]; 50 mg (N = 67))?
**A.** Its value is “(7.5%)”.

**Q.** What about the “Pyrexia TEAE, %” value ([1]; 50 mg (N = 67)) of the same molecule?
**A.** The value was “(9.0%)”.

**Q.** What about the “Rales TEAE, %” value ([1]; 50 mg (N = 67)) of the same molecule?
**A.** The value was “(1.5%)”.

**Q.** What about the “Rash TEAE, %” value ([1]; 50 mg (N = 67)) of the same molecule?
**A.** Its value is “(4.5%)”.

**Q.** And the “Respiratory, thoracic and mediastinal disorders TEAE, %” value ([1]; 50 mg (N = 67))?
**A.** Its value is “(70.1%)”.

**Q.** What about the “Rhinitis TEAE, %” value ([1]; 50 mg (N = 67)) of the same molecule?
**A.** Its value is “(6.0%)”.

**Q.** What about the “Rhinorrhoea TEAE, %” value ([1]; 50 mg (N = 67)) of the same molecule?
**A.** Its value is “(9.0%)”.

**Q.** And the “Sinusitis TEAE, %” value ([1]; 50 mg (N = 67))?
**A.** Its value is “(4.5%)”.

**Q.** What about the “Skin and subcutaneous tissue disorders TEAE, %” value ([1]; 50 mg (N = 67)) of the same molecule?
**A.** The value was “(11.9%)”.

**Q.** What about the “Sputum abnormal TEAE, %” value ([1]; 50 mg (N = 67)) of the same molecule?
**A.** The value was “(6.0%)”.

**Q.** What about the “Sputum increased TEAE, %” value ([1]; 50 mg (N = 67)) of the same molecule?
**A.** Its value is “(19.4%)”.

**Q.** And the “Abdominal pain TEAE, %” value ([1]; 100 mg (N = 66))?
**A.** The value was “(6.1%)”.

**Q.** What about the “Abdominal pain upper TEAE, %” value ([1]; 100 mg (N = 66)) of the same molecule?
**A.** Its value is “(4.5%)”.

**Q.** And the “Alanine aminotransferase increased TEAE, %” value ([1]; 100 mg (N = 66))?
**A.** Its value is “(6.1%)”.

**Q.** And the “Arthralgia TEAE, %” value ([1]; 100 mg (N = 66))?
**A.** The value was “(7.6%)”.

**Q.** And the “Back pain TEAE, %” value ([1]; 100 mg (N = 66))?
**A.** The value was “(1.5%)”.

**Q.** And the “Chest discomfort TEAE, %” value ([1]; 100 mg (N = 66))?
**A.** The value was “(12.1%)”.

**Q.** What about the “Constipation TEAE, %” value ([1]; 100 mg (N = 66)) of the same molecule?
**A.** Its value is “(1.5%)”.

**Q.** And the “Cough TEAE, %” value ([1]; 100 mg (N = 66))?
**A.** The value was “(43.9%)”.

**Q.** And the “Diarrhoea TEAE, %” value ([1]; 100 mg (N = 66))?
**A.** Its value is “(7.6%)”.

**Q.** And the “Distal intestinal obstruction syndrome TEAE, %” value ([1]; 100 mg (N = 66))?
**A.** Its value is “(3.0%)”.

**Q.** And the “Dyspnoea TEAE, %” value ([1]; 100 mg (N = 66))?
**A.** Its value is “(7.6%)”.

**Q.** What about the “Epistaxis TEAE, %” value ([1]; 100 mg (N = 66)) of the same molecule?
**A.** The value was “(4.5%)”.

**Q.** What about the “Fatigue TEAE, %” value ([1]; 100 mg (N = 66)) of the same molecule?
**A.** The value was “(13.6%)”.

**Q.** And the “Forced expiratory volume decreased TEAE, %” value ([1]; 100 mg (N = 66))?
**A.** The value was “(7.6%)”.

**Q.** And the “Gastroenteritis TEAE, %” value ([1]; 100 mg (N = 66))?
**A.** Its value is “(6.1%)”.

**Q.** What about the “Gastrointestinal disorders TEAE, %” value ([1]; 100 mg (N = 66)) of the same molecule?
**A.** The value was “(30.3%)”.

**Q.** What about the “General disorders and administration site conditions TEAE, %” value ([1]; 100 mg (N = 66)) of the same molecule?
**A.** Its value is “(36.4%)”.

**Q.** What about the “Haemoptysis TEAE, %” value ([1]; 100 mg (N = 66)) of the same molecule?
**A.** The value was “(18.2%)”.

**Q.** And the “Headache TEAE, %” value ([1]; 100 mg (N = 66))?
**A.** The value was “(13.6%)”.

**Q.** What about the “Infections and infestations TEAE, %” value ([1]; 100 mg (N = 66)) of the same molecule?
**A.** Its value is “(90.9%)”.

**Q.** And the “Influenza TEAE, %” value ([1]; 100 mg (N = 66))?
**A.** The value was “(7.6%)”.

**Q.** What about the “Investigations TEAE, %” value ([1]; 100 mg (N = 66)) of the same molecule?
**A.** Its value is “(34.8%)”.

**Q.** What about the “Musculoskeletal and connective tissue disorders TEAE, %” value ([1]; 100 mg (N = 66)) of the same molecule?
**A.** The value was “(16.7%)”.

**Q.** And the “Nasopharyngitis TEAE, %” value ([1]; 100 mg (N = 66))?
**A.** The value was “(21.2%)”.

**Q.** And the “Nausea TEAE, %” value ([1]; 100 mg (N = 66))?
**A.** Its value is “(12.1%)”.

**Q.** And the “Nervous system disorders TEAE, %” value ([1]; 100 mg (N = 66))?
**A.** Its value is “(22.7%)”.

**Q.** And the “No. of subjects with at least one TEAE, %” value ([1]; 100 mg (N = 66))?
**A.** Its value is “(100.0%)”.

**Q.** And the “Oropharyngeal pain TEAE, %” value ([1]; 100 mg (N = 66))?
**A.** The value was “(13.6%)”.

**Q.** And the “Pyrexia TEAE, %” value ([1]; 100 mg (N = 66))?
**A.** The value was “(12.1%)”.

**Q.** What about the “Rales TEAE, %” value ([1]; 100 mg (N = 66)) of the same molecule?
**A.** Its value is “(6.1%)”.

**Q.** What about the “Rash TEAE, %” value ([1]; 100 mg (N = 66)) of the same molecule?
**A.** Its value is “(9.1%)”.

**Q.** What about the “Respiratory, thoracic and mediastinal disorders TEAE, %” value ([1]; 100 mg (N = 66)) of the same molecule?
**A.** The value was “(75.8%)”.

**Q.** What about the “Rhinitis TEAE, %” value ([1]; 100 mg (N = 66)) of the same molecule?
**A.** The value was “(4.5%)”.

**Q.** What about the “Rhinorrhoea TEAE, %” value ([1]; 100 mg (N = 66)) of the same molecule?
**A.** Its value is “(7.6%)”.

**Q.** What about the “Sinusitis TEAE, %” value ([1]; 100 mg (N = 66)) of the same molecule?
**A.** Its value is “(10.6%)”.

**Q.** What about the “Skin and subcutaneous tissue disorders TEAE, %” value ([1]; 100 mg (N = 66)) of the same molecule?
**A.** The value was “(24.2%)”.

**Q.** And the “Sputum increased TEAE, %” value ([1]; 100 mg (N = 66))?
**A.** Its value is “(10.6%)”.

**Q.** And the tolerability ([2]; CF patients, 50 mg and 100 mg per day for 48 weeks)?
**A.** Its tolerability is “generally well tolerated”.

**Q.** And the “serious adverse reactions (SARs)” value ([2]; Phase 1 studies, healthy volunteers or subjects with CF)?
**A.** Its value is “No SARs were reported”.

**Q.** What about the safety and tolerability ([2]; across six clinical studies, 5 to 200 mg) of the same molecule?
**A.** Its safety and tolerability is “generally safe and well tolerated”.

**Q.** What about the “circulating neutrophil counts or sputum microbiology” value ([2]; clinical studies) of the same molecule?
**A.** Its value is “did not alter”.

**Q.** And the “headache considered to be related to Acebilustat” value ([2]; clinical studies)?
**A.** The value was 8%.

**Q.** What about the tolerability ([2]; healthy volunteers, once-daily oral up to 200 mg/day for 14 days) of the same molecule?
**A.** The tolerability was “well tolerated”.

**Q.** And the “drug interactions with substrates of P-gp” value (P-glycoprotein (P-gp))?
**A.** Its value is “potential for drug interactions”.

**Q.** And the “reduction of neutrophil swarming” value (neutrophil swarming)?
**A.** The value was 80%.
